According to US12624031B2, “Inhibitors of ubiquitin specific peptidase 22 (USP22) and uses thereof for treating diseases and disorders” (Northwestern University, priority 2022, dated 2026):

Assays:
[1] = system: polarized CD4+ T-regulatory cells; experiment: cytotoxicity in polarized CD4+ T-regulatory cells; assay type: cell-based, murine; settings: for cytotoxicity to Tregs: 156 ng/mL to 5 ug/mL, compared to DMSO controls; for toxicity: Example 5, no concentration given
Experimental: FIG. 2: Cytotoxicity of compounds from 156 ng/mL to 5 ug/mL concentration range in polarized CD4+ T-regulatory cells. Murine CD4+ T-cells were isolated and polarized in vitro to T-regulatory cells using 5 ng/mL IL-2, 2 μg/mL anti-IL-4, 2 μg/mL anti-IFNγ, and 1 ng/mL TGFβ. After 48 hours, the inhibitors were added to the cells.
We then synthesized all 17 compounds and validated their cytotoxicity to regulatory T cells. To this end, mouse CD4 T cells were polarized to FoxP3 Tregs for two days, followed by treatment of the cells with each of the compounds at the doses upto 5 ug/ml. […] In addition, the rest of the compounds had poor solubility in DMSO, and were not further tested.

[2] = molecular target: human GST-USP22 with Sgf11, Sgf73 1-105 and Sus1 (Homo sapiens, UniProt Q9UPT9); experiment: in vitro USP22 deubiquitination assay (re-constructed deubiquitination module); assay type: biochemical; settings: for IC50: customized deubiquitination assay, human GST-USP22 with Sgf11, Sgf73 1-105, Sus1, read-out: IC50 in suppressing USP22 in vitro catalytic activity
Experimental: (A) The chemical structure of S02-S106 11-((4-cyanophenyl)amino)-7,8,9,10-tetrahydrobenzo(4,5)imidazole[1,2-b]isoquinoline-6-carbonitrile, (B & C) The efficacy of USP22i-S02 analogs in inhibiting USP22 catalytic activity was determined in vitro. The representative data from a triplicate analysis of S02-S106 with S02 as a control are shown (B). The IC50 of USP22i-S02 analogs in suppressing USP22 in vitro catalytic activity are shown (C). NA, not available.
We purchased human recombinant Sgf11 and Sgf73 1-105 and Sus1 proteins from R&D Systems Inc, and re-constructed the deubiquitination activity with our human GST-USP22. The USP22 customized deubiquitination was optimized and used for in vitro screening the activity of synthetic USP22i-s02 analogs with the USP22i-s02 as a control (FIG. 12).

[3] = system: PD-L1 expression in A549 cells; experiment: PD-L1 expression in A549 cells by flow cytometry; assay type: cell-based, human
Experimental: FIG. 13: The effects of USP22i-S02-S106 on suppression of PD-L1 expression on human lung adenocarcinoma cells. Human […] lung adenocarcinoma A549 cells were treated with S02-S106 or its lead compound S02 for 48 hours. The expression levels of PD-L1 were determined by flow cytometry. (A) Representative flow data from A549 cells treated with 2 μM S02-S106 or with 15 μM S02 are shown. DMSO treated cells were used as an untreated control and USP22 CRISPR knockout A549 cells were used as a positive control. (B) The dose-dependent inhibition of PD-L1 expression in A549 cells by S02-S106 with USP22i-S02 as a control. Data were normalized with PD-L1 expression levels in USP22-KO cells as 100% of USP22 inhibition as shown in A. (C) Inhibition of PD-L1 expression in WT and USP22-null A549 cells by S02-S106.
We then used PD-L1 expression level as a measurement to evaluate the inhibitory efficacy of USP22 by S02-S106.
To determine the specificity of USP22i-S02-S106, we treated the WT and USP22-null lung cancer cells.

[4] = system: FoxP3 expression in CD4+ natural T-regulatory cells; experiment: FoxP3 expression in natural T-regulatory cells by flow cytometry; assay type: cell-based, murine
Experimental: FIGS. 3 and 4: Change in FoxP3 expression in murine CD4+ natural T-regulatory cells. Murine lymphocytes were isolated from the spleens and lymph nodes and cultured with varying concentrations of inhibitor (0.25 μg/mL to 2 μg/mL) or DMSO, anti-CD3, anti-CD28, TGFβ, and IL-2. After two days, lymphocytes were analyzed by flow cytometry for FoxP3 expression in natural T-regulatory (nTregs) gated on CD3+CD4+CD25+FoxP3+. (FIG. 3) Representative histograms of FITC::FoxP3 MFI in nTregs cultured with inhibitors at a concentration of 2 μg/mL. (FIG. 4) Representative plot of FITC::FoxP3 geometric MFI in nTregs across different concentrations of inhibitor.
We then analyzed whether treatment of Tregs with the compounds S106, 107 and 110 inhibits USP22 activity in Tregs as measured by FoxP3 expression levels by flow cytometry.

Sequence of human GST-USP22 with Sgf11, Sgf73 1-105 and Sus1 (Q9UPT9 whole entry): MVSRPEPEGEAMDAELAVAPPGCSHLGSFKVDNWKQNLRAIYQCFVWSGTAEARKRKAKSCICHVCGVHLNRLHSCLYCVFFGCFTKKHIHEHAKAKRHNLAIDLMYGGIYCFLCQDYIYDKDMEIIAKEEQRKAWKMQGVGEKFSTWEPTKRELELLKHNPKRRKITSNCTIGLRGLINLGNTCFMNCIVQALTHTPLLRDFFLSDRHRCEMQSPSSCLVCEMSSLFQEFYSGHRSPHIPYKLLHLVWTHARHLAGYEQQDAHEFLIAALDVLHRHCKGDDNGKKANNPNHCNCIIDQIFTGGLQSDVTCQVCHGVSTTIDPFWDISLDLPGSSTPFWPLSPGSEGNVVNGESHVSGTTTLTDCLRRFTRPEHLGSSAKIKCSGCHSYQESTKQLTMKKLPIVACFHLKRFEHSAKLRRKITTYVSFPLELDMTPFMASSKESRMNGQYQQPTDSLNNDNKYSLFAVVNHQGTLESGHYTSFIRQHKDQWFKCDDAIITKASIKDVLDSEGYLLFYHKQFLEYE
Sequence of human GST-USP22 with Sgf11, Sgf73 1-105 and Sus1 (Q14CW9 whole entry partner): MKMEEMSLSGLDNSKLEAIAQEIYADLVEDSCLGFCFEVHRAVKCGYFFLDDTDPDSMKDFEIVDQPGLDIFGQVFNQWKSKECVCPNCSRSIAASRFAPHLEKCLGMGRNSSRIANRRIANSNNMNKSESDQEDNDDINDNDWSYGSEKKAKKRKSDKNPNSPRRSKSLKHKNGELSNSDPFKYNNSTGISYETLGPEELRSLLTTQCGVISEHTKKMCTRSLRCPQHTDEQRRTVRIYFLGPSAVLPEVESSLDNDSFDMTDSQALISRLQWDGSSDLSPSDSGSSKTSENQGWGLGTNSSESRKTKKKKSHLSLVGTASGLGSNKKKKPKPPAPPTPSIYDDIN
Sequence of human GST-USP22 with Sgf11, Sgf73 1-105 and Sus1 (O15265 1-105 partner limits assumed): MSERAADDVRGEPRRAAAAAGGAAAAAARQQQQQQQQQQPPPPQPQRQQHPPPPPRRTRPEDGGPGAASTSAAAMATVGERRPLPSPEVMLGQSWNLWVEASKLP
Sequence of human GST-USP22 with Sgf11, Sgf73 1-105 and Sus1 (Q9NPA8 whole entry partner): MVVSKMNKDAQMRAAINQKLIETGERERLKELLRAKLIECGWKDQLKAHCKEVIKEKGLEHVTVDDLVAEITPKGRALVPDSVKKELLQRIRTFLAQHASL

Molecule: Cn1c2nc3ccccc3c-2c(Nc2ccccc2)c2ccccc21 [Compound S201, N5-methyl-N-phenyl-5H-indolo[2,3-b]quinolin-11-amine]
- cytotoxicity to Tregs [1]: extremely toxic

Molecule: N#Cc1ccc(Nc2c3c(c(C#N)c4nc5ccccc5n24)CCCC3)cc1 [Compound S02-S106, 11-((4-cyanophenyl)amino)-7,8,9,10-tetrahydrobenzo(4,5)imidazole[1,2-b]isoquinoline-6-carbonitrile]
- IC50 [2]: 0.6 µM
- improvement of USP22i-S02 inhibitory activity ([2]; cyano group at R1 position of E ring, versus USP22i-S02): at least 8 folds
- USP22 inhibitory activity relative to USP22i-S02 ([2]; in vitro deubiquitination assay): most potent USP22 inhibitory activity
- improvement of inhibitory efficacy ([2]; versus S02, in vitro and cell-based studies collectively): 4-8 folds
- efficacy in suppressing PD-L1 expression ([3]; A549 cells, S02-S106 at 2 μM versus S02 at 15 μM): better efficacy than S02 at 15 μM
- IC50 ([3]; Homo sapiens, A549 cells, 48 hours, read-out: IC50 inhibition of PD-L1 expression): ~3.2 µM
- PD-L1 expression in USP22-null A549 cells ([3]; USP22-null A549 cells): did not further reduce PD-L1 expression
- PD-L1 expression in WT A549 cells ([3]; WT A549 cells): dramatically inhibited PD-L1 expression to a level comparable to that of USP22-null A549 cells
- cytotoxicity to Tregs [1]: least cytotoxicity
- toxicity [1]: without increasing its toxicity
- toxicity ([1]; listed as USP22i-S02-S106): without increasing the cytotoxicity
- decrease of FoxP3 expression in nTregs ([4]; 2 μg/mL, two days): higher efficacy compared to usp22i-s02
- FoxP3 expression levels in Tregs ([4]; concentration of 1-2 ug): dose dependently reduced

Molecule: N#Cc1c2c(c(Nc3ccc(CN)cc3)n3c1nc1ccccc13)CCCC2 [Compound S02-S113, (11-((4-aminomethyl)phenyl)amino)-7,8,9,10-tetrahydrobenzo(4,5)imidazole[1,2-b]isoquinoline-6-carbonitrile]
- IC50 [2]: 0.3 µM
- cytotoxicity to Tregs [1]: modest toxicity
- toxicity [1]: highly toxic

Molecule: N,5-dimethyl-5H-indolo[2,3-b]quinolin-11-amine compound with anisole [Compound S202]
- cytotoxicity to Tregs [1]: extremely toxic
